US20070237712A1, “Methods of Redistributing Apical Target Antigens to Detect and Treat Cellular Proliferative Disease” (priority 2004, published 2007)
“Also recorded” adds a separate entry of the source.

Columns and labels:
Format in all cases: cell-based
microtubule cytoskeleton = test: Immunofluorescence analysis of alpha-tubulin (microtubule integrity); details: MDCK-PSMA cells, 2 μM drug, 3 hours; FIG. 6B-D
Description: (§1) MDCK cells (clone II) were obtained from the ATCC (Manassas, Va.) and cultured in DMEM (Gibco BRL, Rockville, Md.) supplemented with 10% FBS, 2 mM L-glutamine, 25 units/ml penicillin, 25 μg/ml streptomycin, and 100 μM non-essential amino acids. Cells were grown at 37° C. in a humidified incubator with 5% CO2. Cells were treated for 10 hours with 10 mM sodium butyrate to enhance PSMA expression. For experiments involving inhibition of N-glycosylation or microtubule depolymerization, cells were treated for 3 hours with 5 μg/ml tunicamycin (Sigma, St. Louis, Mo.) or 4 μg/ml nocodazole (Sigma), or 2 μM vinblastine, vincristine, or vinorelbine (Sigma) in DMEM at 37° C. prior to the indicated experiment, unless otherwise noted.
Tissue sections and MDCK cells were fixed in cold methanol at −20° C. for 30 minutes. Following fixation, specimens were placed in humidified chambers, washed with phosphate buffered saline containing 0.1 mM CaCl2 and 1 mM MgCl2 and 0.5% bovine serum albumin (PBS-CM-BSA), incubated 1 hour with primary antibody, washed with PBS-CM-BSA, incubated 30 minutes in secondary antibody, washed with PBS-CM-BSA, rinsed with distilled water, and mounted in Vectashield (Vector, Burlingame, Calif.).

MDCK-PSMA cells [1] = test: Domain specific internalization assay of J591; details: MDCK-PSMA monolayers, 2 μM drug 3 hours; for J591 uptake from the apical surface after drug treatment: then 5 μg/ml J591 30 minutes in apical chamber, FIG. 6F-H; for J591 internalization from the basolateral surface after drug treatment: then 5 μg/ml J591 30 minutes in basolateral chamber, FIG. 6J-L
Description: MDCK-PSMA cells were grown on […] pore size polycarbonate transwell filters (Corning, Corning, N.Y.) and grown to confluence as measured by transepithelial electrical resistance (TER) using an EVOM Epithelial Voltometer (World Precision Instruments, Sarasota, Fla.). Values were normalized for the area of the filter after subtracting the background resistance of a filter without cells. TER of 220-250Ω·cm^2 is indicative of the presence of functional tight junctions (24). Cells were treated with 2 μM of vinblastine, vincristine, or vinorelbine at 37° C. for 3 hours and subsequently incubated at 37° C. for 30 minutes in the presence of the indicated drug and 5 μg/ml of J591 added to either the apical or basolateral chamber. Cells were rinsed in PBS-CM, fixed, and subject to immunofluorescence analysis with FITC-conjugated secondary antibody. Single channel digital microscopic images were collected with an Olympus AX70 upright microscope using identical exposure parameters and analyzed with SPOT imaging software, version 4.0.4 (Diagnostic Instruments, Inc., Sterling Heights, Mich.).

Na,K-ATPase = test: Cell surface biotinylation / immunoblot of basolateral marker Na,K-ATPase; details: MDCK-PSMA cells treated with nocodazole; FIG. 5B
Description: as §1
(§2) MDCK cells were grown to confluence on transwell filters, as determined by TER, and biotinylation of the apical or basolateral surface was performed as described (25). […]
(§3) Samples were separated on 10% SDS polyacrylamide gels and transferred to nitrocellulose. […] After washing three times in PBST and once in PBS, bound antibody was detected by peroxidase-catalyzed ECL-Plus (Amersham, Buckinghamshire, UK). Densitometric analysis and quantification of bands was performed using ImageQuant software (Molecular Dynamics, Sunnyvale, Calif.).

PSMA [2] = test: Surface immunofluorescence of PSMA; details: MDCK-PSMA cells treated with nocodazole; data not shown
Description: as §1
For cell surface staining, MDCK cells were grown on transwell filters and the transepithelial electrical resistance (TER) was determined using an EVOM Epithelial Voltohmeter (World Precision Instruments, Sarasota, Fla.). […]
Confocal microscopy was performed using a Fluoview laser scanning confocal microscope (Olympus America, Melville, N.Y.) as described (25). To detect FITC and propidium iodide, samples were excited with krypton and argon lasers and light emitted between 525 and 540 nm was recorded for FITC and above 630 nm for propidium iodide. Images were generated and analyzed using the Fluoview image analysis software, version 2.1.39 (Olympus America).

PSMA [3] = test: Antibody internalization trafficking assay (pulse-chase with mAb J591 in apical or basolateral chamber); details: MDCK-PSMA cells pulsed and chased in the presence of nocodazole (three hours); FIG. 5C
Description: as §1
Confluent monolayers of MDCK-PSMA cells on transwell filters were rinsed twice and incubated for 30 minutes in starving media [cystine/methionine free DMEM (CellGro, Herndon, Va.)] supplemented with 0.2% BSA. […]
For the antibody internalization trafficking assay, MDCK cells were metabolically labeled and chased in DMEM containing 5 μg/ml of mAb J591 added to either the apical or basolateral chamber. […] The relative amount of PSMA for each was calculated as a percentage of the total amount of labeled PSMA precipitated throughout the course of the experiment, as quantified by densitometry.

MDCK-PSMA cells [4] = test: Post-Golgi analysis assay: co-localization of PSMA and Na,K-β-GFP vesicles after 20° C. block; details: data not shown
Description: MDCK-PSMA cells transiently transfected to express Na,K-β-GFP were grown on glass coverslips and treated with nocodazole or tunicamycin. Cells were incubated for 6 hours at 20° C. to accumulate newly synthesized protein in the Golgi and TGN, subsequently transferred to 37° C. for 30 minutes, and subject to immunofluorescence analysis as described above. Laser scanning confocal microscopy was performed using a Zeiss Axiovert 200 inverted microscope (Carl Zeiss, Inc, Thornwood, N.Y.). Samples were excited with Argon and Helium/Neon lasers and single channel images were generated and analyzed using the Zeiss LSM 510 Meta imaging system (Carl Zeiss, Inc.) by recording light emitted between 505 and 543 nm for GFP and above 560 nm for CY3.

PSMA [5] = test: Selective cell surface biotinylation assay of PSMA at apical or basolateral plasma membrane
Description: as §1, §2
as §3, with “Calif.). […]” for “Calif.).”

Question: Which results are given for `CCC1=C[C@@H]2CN(C1)Cc1c([nH]c3ccccc13)[C@@](C(=O)OC)(c1cc3c(cc1OC)N(C)[C@H]1[C@@](O)(C(=O)OC)[C@H](OC(C)=O)[C@]4(CC)C=CCN5CC[C@]31[C@@H]54)C2` [vinorelbine]?
Answer: depolymerization of the microtubule cytoskeleton (microtubule cytoskeleton): Extensive microtubule depolymerization; J591 uptake from the apical surface after drug treatment (MDCK-PSMA cells [1]): also taken up from the apical surface; J591 internalization from the basolateral surface after drug treatment (MDCK-PSMA cells [1]): dramatic increase

Question: `CC[C@]1(O)C[C@H]2CN(CCc3c([nH]c4ccccc34)[C@@](C(=O)OC)(c3cc4c(cc3OC)N(C=O)[C@H]3[C@@](O)(C(=O)OC)[C@H](OC(C)=O)[C@]5(CC)C=CCN6CC[C@]43[C@@H]65)C2)C1` [vincristine] was tested. Which “depolymerization of the microtubule cytoskeleton” value (microtubule cytoskeleton) did it give?
Answer: Extensive microtubule depolymerization

Question: What about the “J591 uptake from the apical surface after drug treatment” value (MDCK-PSMA cells [1]) of the same compound?
Answer: also taken up from the apical surface

Question: What about the “J591 internalization from the basolateral surface after drug treatment” value (MDCK-PSMA cells [1]) of the same compound?
Answer: dramatic increase

Question: Which results are given for `COC(=O)Nc1nc2cc(C(=O)c3cccs3)ccc2[nH]1` [nocodazole, methyl[5-(2-thienyl-carbonyl)-1H-benzimidazol-2-yl]-carbamate]?
Answer: polarity of the basolateral marker Na,K-ATPase (Na,K-ATPase): unaffected; PSMA expression at the basolateral plasma membrane relative to untreated cells (PSMA [2]): increased PSMA expression at the basolateral plasma membrane; radiolabeled PSMA precipitated with J591 in apical versus basolateral chamber (polarized delivery of PSMA) (PSMA [3]): equivalent levels; also recorded: abolished; co-localization of PSMA and Na,K-β-GFP in post-Golgi vesicles (MDCK-PSMA cells [4]; in the presence of nocodazole, after release from 20° C. block): did not show an increased co-localization; distribution of surface PSMA between apical and basolateral plasma membrane (PSMA [5]; MDCK-PSMA cells treated with nocodazole (4 μg/ml, 3 hours), FIG. 5A): homogeneous distribution

Question: Which results are given for tunicamycin?
Answer: level of co-localization of post-Golgi vesicles containing PSMA and Na,K-ATPase (MDCK-PSMA cells [4]; MDCK-PSMA cells incubated with tunicamycin, 20° C. block then 37° C., 38/88 vesicles): approximately 43%; distribution of surface PSMA between apical and basolateral plasma membrane (PSMA [5]; MDCK-PSMA cells metabolically labeled in the presence of tunicamycin (10 μg/ml, 4 hours), FIG. 4): equivalent levels at both plasma membrane surfaces

Question: Which “depolymerization of the microtubule cytoskeleton” value (microtubule cytoskeleton) does the source give for `CC[C@]1(O)C[C@@H]2CN(CCc3c([nH]c4ccccc34)[C@@](C(=O)OC)(c3cc4c(cc3OC)N(C)[C@H]3[C@@](O)(C(=O)OC)[C@H](OC(C)=O)[C@]5(CC)C=CCN6CC[C@]43[C@@H]65)C2)C1` [vinblastine] here?
Answer: Extensive microtubule depolymerization

Question: And the “J591 uptake from the apical surface after drug treatment” value (MDCK-PSMA cells [1])?
Answer: also taken up from the apical surface

Question: And the “J591 internalization from the basolateral surface after drug treatment” value (MDCK-PSMA cells [1])?
Answer: dramatic increase
